Test results reported in the NIST ThermoML archive (doi:10.1021/je0504515).
Numbers after ± are expanded uncertainties.

Assay: xn = mol fraction of the nth substance listed
Conditions: Liquid; for electrical conductivity: Radiometer CDM 210 Meterlab conductimeter with a CDC 745-9 cell

CCCCn1cc[n+](C)c1.F[B-](F)(F)F [1-butyl-3-methylimidazolium tetrafluoroborate] + Cc1cccnc1
Conditions | electrical conductivity [S/m]
295.2 K, 101 kPa, x2 = 0 | 0.378 ± 0.015

Cc1cccnc1 [3-methylpyridine] + CCCC[N+]1(C)CCCC1.O=S(=O)([N-]S(=O)(=O)C(F)(F)F)C(F)(F)F
295.2 K, 101 kPa
Conditions | electrical conductivity [S/m]
x1 = 0.029 | 0.353 ± 0.06
x1 = 0.057 | 0.335 ± 0.013
x1 = 0.095 | 0.367 ± 0.015
x1 = 0.153 | 0.416 ± 0.017
x1 = 0.194 | 0.445 ± 0.018
x1 = 0.249 | 0.467 ± 0.019
x1 = 0.338 | 0.522 ± 0.021
x1 = 0.387 | 0.578 ± 0.023
x1 = 0.439 | 0.606 ± 0.024
x1 = 0.49 | 0.635 ± 0.025
x1 = 0.54 | 0.686 ± 0.027
x1 = 0.591 | 0.726 ± 0.029
x1 = 0.64 | 0.761 ± 0.03
x1 = 0.691 | 0.793 ± 0.032
x1 = 0.743 | 0.814 ± 0.033
x1 = 0.794 | 0.808 ± 0.032
x1 = 0.845 | 0.771 ± 0.031
x1 = 0.896 | 0.665 ± 0.027

CCCC[N+]1(C)CCCC1.O=S(=O)([N-]S(=O)(=O)C(F)(F)F)C(F)(F)F + Cc1cccnc1
Conditions | electrical conductivity [S/m]
295.2 K, 101 kPa, x2 = 0 | 0.28 ± 0.011

CCCC[N+]1(C)CCCC1.O=S(=O)([N-]S(=O)(=O)C(F)(F)F)C(F)(F)F + CN(C)C=O
295.2 K
Conditions | electrical conductivity, 101 kPa [S/m] | viscosity, 101.3 kPa [mPa·s]
x2 = 0 | 0.28 ± 0.017 | 80 ± 6.8
x2 = 0.13 | – | 40.3 ± 8.7
x2 = 0.144 | 0.387 ± 0.023 | –
x2 = 0.24 | – | 29.6 ± 4
x2 = 0.252 | 0.495 ± 0.03 | –
x2 = 0.33 | – | 21.7 ± 3
x2 = 0.336 | 0.612 ± 0.037 | –
x2 = 0.403 | 0.74 ± 0.044 | –
x2 = 0.45 | – | 14.4 ± 2.3
x2 = 0.457 | 0.78 ± 0.047 | –
x2 = 0.519 | 0.981 ± 0.059 | –
x2 = 0.54 | – | 9.9 ± 1.7
x2 = 0.574 | 1.1 ± 0.066 | –
x2 = 0.637 | 1.32 ± 0.079 | –
x2 = 0.64 | – | 6.6 ± 1.3
x2 = 0.716 | 1.6 ± 0.096 | –
x2 = 0.74 | – | 3.7 ± 1.2
x2 = 0.773 | 1.85 ± 0.11 | –
x2 = 0.835 | 2.1 ± 0.13 | –
x2 = 0.871 | 2.17 ± 0.13 | –
x2 = 0.894 | 2.17 ± 0.13 | –
x2 = 0.91 | 2.12 ± 0.13 | –
x2 = 0.931 | 1.98 ± 0.12 | –
x2 = 0.953 | 1.7 ± 0.1 | –
x2 = 0.971 | 1.31 ± 0.079 | –
x2 = 0.981 | 1.01 ± 0.061 | –

CCCCn1cc[n+](C)c1.F[B-](F)(F)F [1-butyl-3-methylimidazolium tetrafluoroborate] + CN(C)C=O
295.2 K, 101 kPa
Conditions | electrical conductivity [S/m] | viscosity [mPa·s]
x2 = 0 | 0.375 ± 0.015 | 122.9 ± 19
x2 = 0.088 | 0.464 ± 0.019 | –
x2 = 0.14 | – | 65.6 ± 14
x2 = 0.161 | 0.551 ± 0.022 | –
x2 = 0.224 | 0.629 ± 0.025 | –
x2 = 0.23 | – | 45.4 ± 8.6
x2 = 0.324 | 0.79 ± 0.032 | –
x2 = 0.33 | – | 26.3 ± 5.7
x2 = 0.366 | 0.871 ± 0.035 | –
x2 = 0.434 | 1.03 ± 0.041 | –
x2 = 0.44 | – | 16.1 ± 3.1
x2 = 0.49 | 1.17 ± 0.047 | –
x2 = 0.53 | – | 11.2 ± 1.6
x2 = 0.535 | 1.3 ± 0.052 | –
x2 = 0.606 | 1.55 ± 0.062 | –
x2 = 0.61 | – | 9.8 ± 1.4
x2 = 0.658 | 1.72 ± 0.069 | –
x2 = 0.728 | 2.01 ± 0.08 | –
x2 = 0.73 | – | 4.7 ± 1.7
x2 = 0.793 | 2.31 ± 0.093 | –
x2 = 0.828 | 2.4 ± 0.096 | –
x2 = 0.852 | 2.44 ± 0.097 | –
x2 = 0.906 | 2.44 ± 0.097 | –
x2 = 0.957 | 1.83 ± 0.073 | –
x2 = 0.973 | 1.39 ± 0.056 | –
x2 = 0.981 | 1.13 ± 0.045 | –

Cc1cccnc1 [3-methylpyridine] + CCCCn1cc[n+](C)c1.F[B-](F)(F)F
295.2 K, 101 kPa
Conditions | electrical conductivity [S/m]
x1 = 0.061 | 0.44 ± 0.018
x1 = 0.114 | 0.476 ± 0.019
x1 = 0.162 | 0.52 ± 0.021
x1 = 0.205 | 0.555 ± 0.022
x1 = 0.244 | 0.588 ± 0.024
x1 = 0.279 | 0.616 ± 0.025
x1 = 0.34 | 0.674 ± 0.027
x1 = 0.392 | 0.72 ± 0.029
x1 = 0.474 | 0.802 ± 0.032
x1 = 0.568 | 0.845 ± 0.034
x1 = 0.659 | 0.915 ± 0.037
x1 = 0.721 | 0.928 ± 0.037
x1 = 0.763 | 0.936 ± 0.037
x1 = 0.798 | 0.94 ± 0.038
x1 = 0.838 | 0.838 ± 0.034
x1 = 0.866 | 0.747 ± 0.03
x1 = 0.906 | 0.59 ± 0.024
x1 = 0.928 | 0.474 ± 0.019

CCCCCC[N+]1(C)CCCC1.O=S(=O)([N-]S(=O)(=O)C(F)(F)F)C(F)(F)F + CN(C)C=O
Conditions | electrical conductivity, 101 kPa [S/m] | viscosity, 101.3 kPa [mPa·s]
293.2 K, x2 = 0.1 | 0.155 ± 0.006 | –
293.2 K, x2 = 0.5 | 0.382 ± 0.036 | –
293.2 K, x2 = 0.9 | 1.68 ± 0.068 | –
295.2 K, x2 = 0 | – | 119.8 ± 17
295.2 K, x2 = 0.1 | 0.17 ± 0.007 | –
295.2 K, x2 = 0.104 | – | 83 ± 7.2
295.2 K, x2 = 0.205 | – | 56.7 ± 2
295.2 K, x2 = 0.301 | – | 42.9 ± 1.9
295.2 K, x2 = 0.402 | – | 28.1 ± 1.3
295.2 K, x2 = 0.5 | 0.418 ± 0.017 | 19.6 ± 0.9
295.2 K, x2 = 0.599 | – | 12 ± 0.5
295.2 K, x2 = 0.7 | – | 5.5 ± 0.3
295.2 K, x2 = 0.9 | 1.74 ± 0.07 | –
298.2 K, x2 = 0.1 | 0.191 ± 0.008 | –
298.2 K, x2 = 0.5 | 0.47 ± 0.019 | –
298.2 K, x2 = 0.9 | 1.82 ± 0.073 | –
300.2 K, x2 = 0 | – | 96.8 ± 11
300.2 K, x2 = 0.104 | – | 67.5 ± 3.7
300.2 K, x2 = 0.205 | – | 47.2 ± 2.2
300.2 K, x2 = 0.301 | – | 36.4 ± 1.6
300.2 K, x2 = 0.402 | – | 24 ± 1.1
300.2 K, x2 = 0.5 | – | 17 ± 0.7
300.2 K, x2 = 0.599 | – | 10.5 ± 0.5
300.2 K, x2 = 0.7 | – | 5.1 ± 0.3
301.2 K, x2 = 0.1 | 0.211 ± 0.009 | –
301.2 K, x2 = 0.5 | 0.522 ± 0.022 | –
301.2 K, x2 = 0.9 | 1.9 ± 0.076 | –
303.2 K, x2 = 0.1 | 0.224 ± 0.009 | –
303.2 K, x2 = 0.5 | 0.557 ± 0.023 | –
303.2 K, x2 = 0.9 | 1.96 ± 0.079 | –
305.2 K, x2 = 0 | – | 79.6 ± 6.4
305.2 K, x2 = 0.1 | 0.239 ± 0.01 | –
305.2 K, x2 = 0.104 | – | 55.8 ± 2
305.2 K, x2 = 0.205 | – | 39.8 ± 1.8
305.2 K, x2 = 0.301 | – | 30.8 ± 1.4
305.2 K, x2 = 0.402 | – | 20.9 ± 0.9
305.2 K, x2 = 0.5 | 0.592 ± 0.024 | 14.7 ± 0.7
305.2 K, x2 = 0.599 | – | 9.3 ± 0.4
305.2 K, x2 = 0.7 | – | 4.7 ± 0.2
305.2 K, x2 = 0.9 | 2.02 ± 0.081 | –
308.2 K, x2 = 0.1 | 0.26 ± 0.011 | –
308.2 K, x2 = 0.5 | 0.645 ± 0.026 | –
308.2 K, x2 = 0.9 | 2.1 ± 0.084 | –
310.2 K, x2 = 0 | – | 64.8 ± 3.3
310.2 K, x2 = 0.104 | – | 45.9 ± 2.2
310.2 K, x2 = 0.205 | – | 33.6 ± 1.5
310.2 K, x2 = 0.301 | – | 26.3 ± 1.2
310.2 K, x2 = 0.402 | – | 17.9 ± 0.8
310.2 K, x2 = 0.5 | – | 13 ± 0.6
310.2 K, x2 = 0.599 | – | 8.4 ± 0.4
310.2 K, x2 = 0.7 | – | 4.3 ± 0.2
311.2 K, x2 = 0.1 | 0.28 ± 0.011 | –
311.2 K, x2 = 0.5 | 0.697 ± 0.029 | –
311.2 K, x2 = 0.9 | 2.19 ± 0.088 | –
313.2 K, x2 = 0.1 | 0.295 ± 0.012 | –
313.2 K, x2 = 0.5 | 0.732 ± 0.029 | –
313.2 K, x2 = 0.9 | 2.24 ± 0.09 | –
315.2 K, x2 = 0 | – | 54.2 ± 1.9
315.2 K, x2 = 0.1 | 0.31 ± 0.012 | –
315.2 K, x2 = 0.104 | – | 38 ± 1.8
315.2 K, x2 = 0.205 | – | 28.8 ± 1.3
315.2 K, x2 = 0.301 | – | 22.6 ± 1
315.2 K, x2 = 0.402 | – | 15.7 ± 0.7
315.2 K, x2 = 0.5 | 0.767 ± 0.031 | 11.4 ± 0.5
315.2 K, x2 = 0.599 | – | 7.5 ± 0.3
315.2 K, x2 = 0.7 | – | 3.9 ± 0.2
315.2 K, x2 = 0.9 | 2.31 ± 0.092 | –
318.2 K, x2 = 0.1 | 0.33 ± 0.013 | –
318.2 K, x2 = 0.5 | 0.819 ± 0.033 | –
318.2 K, x2 = 0.9 | 2.39 ± 0.096 | –
320.2 K, x2 = 0 | – | 45.9 ± 2.2
320.2 K, x2 = 0.104 | – | 32.4 ± 1.5
320.2 K, x2 = 0.205 | – | 24.8 ± 1.1
320.2 K, x2 = 0.301 | – | 19.5 ± 0.9
320.2 K, x2 = 0.402 | – | 13.9 ± 0.6
320.2 K, x2 = 0.5 | – | 10 ± 0.4
320.2 K, x2 = 0.599 | – | 6.8 ± 0.3
320.2 K, x2 = 0.7 | – | 3.6 ± 0.2
321.2 K, x2 = 0.1 | 0.351 ± 0.014 | –
321.2 K, x2 = 0.5 | 0.871 ± 0.036 | –
321.2 K, x2 = 0.9 | 2.48 ± 0.099 | –
323.2 K, x2 = 0.1 | 0.365 ± 0.015 | –
323.2 K, x2 = 0.5 | 0.91 ± 0.054 | –
323.2 K, x2 = 0.9 | 2.54 ± 0.1 | –
325.2 K, x2 = 0 | – | 38.9 ± 1.9
325.2 K, x2 = 0.104 | – | 27.6 ± 1.3
325.2 K, x2 = 0.205 | – | 21.8 ± 1
325.2 K, x2 = 0.301 | – | 16.9 ± 0.8
325.2 K, x2 = 0.402 | – | 12 ± 0.5
325.2 K, x2 = 0.5 | – | 9.1 ± 0.4
325.2 K, x2 = 0.599 | – | 6.2 ± 0.3
325.2 K, x2 = 0.7 | – | 3.4 ± 0.2
